According to patent publication US12528769B2, “Synthesis of (2S,5R)-5-(2-chlorophenyl)-1-(2′-methoxy-[1,1′-biphenyl]-4-carbonyl)pyrrolidine-2-carboxylic acid” (EPICS THERAPEUTICS, priority 2020, dated 2026):
Where two headings read alike, the source gives them in different places.

Columns and labels:
Assay type in all cases: physicochemical
Solubility in water = conditions: for Native pH: 150 mg material in 1.0 mL deionized water, before pH adjustment; for solubility: deionized water, pH 7.4, aqueous buffer, thermodynamic from solid
Protocol: Method. The solubility in water was studied as described hereafter. 150 mg of the studied materials of (1), (1·Na) and (1·K) were transferred to a glass vial and 1.0 mL of deionized water was added, vortex and ultrasonic treatment cycles were applied during 5 min. Then pH was checked and adjusted to pH=9.0-10.0 range by accurate addition of 2M aqueous solution of NaOH for (1) and (1·Na) or KOH for (1·K). Then several cycles of vortex and ultrasonic treatment were applied for 30 min. pH was adjusted to pH=7.2-7.6 range by careful addition of NaOH or KOH or HCl aqueous solutions. Vortex and ultrasonic treatment cycles and pH adjustments were repeated until pH stabilized at pH=7.2-7.6 range. Then the suspensions were centrifuged at 3000 rpm and supernatant was filtered thought membrane filter. The resulting filtrate was diluted in 1000 folds with DMSO and analyzed by HPLC against standard solution with known concentration.

[1] = Forced degradation: photolytic stability; conditions: for Photolytic stability, purity (%): solutions 1 mg/mL in ACN/water (3:7), cool daylight lamp, around 22° C.; for Initial purities, purity (%): T0, baseline of the photolytic and thermal stability studies; for Decrease of purity in the photolytic stability assay: after 3 weeks
Protocol: For photolytic stability, cool daylight lamp OSRAM DULUX TWIST 23W 1600 lm 6500 K located in 20 cm distance from the studied samples was used. Samples were prepared at 1 mg/mL concentration in ACN/water (3:7 v/v) solution and exposed to light in capped glass vials placed on reflective surface at ambient temperature (around 22° C.).
(§1) Samples were analyzed by RP-HPLC and Chiral HPLC at TO, after 1 week and after 3 weeks. For RP-HPLC analysis samples were analyzed directly from solutions used for stability study. For Chiral HPLC, aliquots were evaporated in Genevac at 40° C. and re-dissolved in the mobile phase.

[2] = Forced degradation: thermal stability; conditions: for Thermal stability, purity (%): solids at 115° C.; for Decrease of purity in the thermal stability assay: after 3 weeks
Protocol: For thermal stability powders were exposed to elevated temperature in capped glass vials kept inside thermostatic oven at 115° C.
as §1

[3] = water, pH adjusted to 7.2-7.6, filtrate analysed by HPLC, read-out: Maximal solubility pH 7.4

Native pH (Solubility in water)	solubility (Solubility in water; [3])	solubility (Solubility in water; water, read-out: Aqueous solubility (confirmed))	Increase of aqueous solubility compared with the free acid (1) (Solubility in water; water, pH 7.4)	Increase of aqueous solubility compared with the potassium salt (1·K) (Solubility in water; water, pH 7.4)	Photolytic stability, purity (%) ([1]; 1 week)	Photolytic stability, purity (%) ([1]; 3 weeks)	Initial purities, purity (%) [1]	Decrease of purity in the photolytic stability assay [1]	Thermal stability, purity (%) ([2]; 1 week)	Thermal stability, purity (%) ([2]; 3 weeks)	Decrease of purity in the thermal stability assay [2]	Solubility in water (in words) (Solubility in water; acid form)	Maximal solubility pH 7.4 (Solubility in water; water, pH adjusted to 7.2-7.6, filtrate analysed by HPLC)	SMILES
7	129 mg/mL	~130 mg/mL	2 fold	1.5 fold	98.5%	97.0%	99.3%	2.3%	99.1%	98.9%	0.4%	–	–	COc1ccccc1-c1ccc(C(=O)N2[C@@H](c3ccccc3Cl)CC[C@H]2C(=O)[O-])cc1.[Na+] [1·Na, sodium (2S,5R)-5-(2-chlorophenyl)-1-(2′-methoxy-[1,1′-biphenyl]-4-carbonyl)pyrrolidine-2-carboxylate]
5	> 64 mg/mL	–	–	–	96.7%	75.9%	99.3%	23.6%	88.5%	71.4%	28.1%	poorly soluble in water	–	COc1ccccc1-c1ccc(C(=O)N2[C@@H](c3ccccc3Cl)CC[C@H]2C(=O)O)cc1 [compound 1, (2S,5R)-5-(2-chlorophenyl)-1-(2′-methoxy-[1,1′-biphenyl]-4-carbonyl)pyrrolidine-2-carboxylic acid]
7	–	–	–	–	–	–	–	–	–	–	–	–	87 mg/mL	COc1ccccc1-c1ccc(C(=O)N2[C@@H](c3ccccc3Cl)CC[C@H]2C(=O)[O-])cc1.[K+] [1·K]
